According to US11718637B2, “Prodrugs of 4′-C-substituted-2-halo-2′- deoxyadenosine nucleosides and methods of making and using the same” (Gilead Sciences, Inc., priority 2020, dated 2023):
In brackets after ≈: the same amount, converted by molar mass. Like-named read-outs stand apart in the source and are kept apart here.

Experiments:
[1] = Kinetic solubility analysis (CLND); assay type: physicochemical; conditions: 24.2 °C, kinetic from dmso stock, from DMSO stocks, 1.0% DMSO, 24-hour incubation at ambient temperature, medium (0.1N HCl or PBS 7.4) not stated
Experimental: Kinetic Solubility Analysis (CLND)
0.1N HCl: Hydrochloric acid, 0.1N standardized solution.
1×PBS, 7.4: Phosphate Buffered Saline solution 10×, PBS 50 mL was added to approximately 450 mL HPLC grade H2O. The volume of the solution was then adjusted to 500 mL for a total dilution factor of 1:10 and a final PBS concentration of 1×. The pH of the final solution was measured and found to be 7.4.
Kinetic Solubility from DMSO Stocks: 100-fold dilutions of each DMSO stock solution were prepared in singleton by combining 3 μL of DMSO stock with 297 μL of the appropriate media in a Millipore solubility filter plate with a […] polycarbonate filter membrane using Hamilton Starlet liquid handling. The final DMSO concentration is 1.0% and maximum theoretical compound concentration is 100 μM (assuming stock concentration of 10 mM). The filter plate was sealed. Following 24-hour incubation at ambient temperature (24.2-27.5° C.), the samples were vacuum filtered and the filtrates were collected in a 96 well polypropylene plate for analysis. The collection plate was sealed for analysis.
Filtrates were injected into the nitrogen detector for quantification. The results are reported here in μM.
Calculation of Results: The equimolar nitrogen response of the detector was calibrated using standards which spanned the dynamic range of the instrument from […] nitrogen. The filtrates were quantified with respect to this calibration curve. The calculated solubility values were corrected for background nitrogen present in the DMSO and the media used to prepare the samples. All reported values for compounds containing adjacent nitrogen atoms in a ring structure should be increased by ˜25%. […] The solubility results presented assume that the samples were free of nitrogen containing impurities and were stable under the assay conditions.

[2] = test system: HIV-1 (IIIB); assay: Antiviral assay in MT-4 cells; assay type: cell-based
Experimental: (§1) Compounds were tested in a high-throughput 384-well assay format for their ability to inhibit the replication of HIV-1 (IIIB) in MT-4 cells. Compounds were serially diluted (1:3) in DMSO on 384-well polypropylene plates and further diluted 200-fold into complete RPMI media (10% FBS, 1% P/S) using the Biotek Micro Flow and Labcyte ECHO acoustic dispenser. Each plate contained up to 8 test compounds, with negative (No Drug Control) and 5 μM AZT positive controls. MT-4 cells were pre-infected with 10 μL of either RPMI (mock-infected) or a fresh 1:250 dilution of HIV-1 IIIB concentrated virus stock. Infected and uninfected MT-4 cells were further diluted in complete RPMI media and added to each plate using a Micro Flow dispenser. After 5 days incubation in a humidified and temperature-controlled incubator (37° C.), Cell Titer Glo (Promega) was added to the assay plates and chemiluminescence read using an Envision plate-reader. EC50 values were defined as the compound concentration that causes a 50% decrease in luminescence signal, and were calculated using a sigmoidal dose-response model to generate curve fits.

[3] = Cytotoxicity assay in MT-4 cells; assay type: cell-based; conditions: human; uninfected MT-4 cells, 5 days incubation, Cell Titer Glo
Experimental: as §1, with “fits. Assays were performed as above except uninfected MT-4 cells were added to each well containing test compound. In addition, 10 μM puromycin was added to the last column of each assay plate to assess a base level of cytotoxicity.” for “fits.”

[4] = Human immunodeficiency virus 1, MT4, 120 h, HIV-1 IIIB replication in MT-4 cells, 5 days incubation, Cell Titer Glo, read-out: EC50

Compound `C#C[C@]1(COC(=O)OCCCCCCCCCCCC)O[C@@H](n2cnc3c(N)nc(F)nc32)C[C@@H]1O` [Compound 12, ((2R,3S,5R)-5-(6-amino-2-fluoro-9H-purin-9-yl)-2-ethynyl-3-hydroxytetrahydrofuran-2-yl)methyl dodecyl carbonate] has a solubility kinetic at 24 h [1] of under 1 µM, an EC50 [2, 4] of 6 nM and a CC50 at 5 days [3] of 17000 nM.

Work on `C#C[C@]1(COC(=O)c2ccccc2COC(=O)CCCCCCCCCCCCCCC)O[C@@H](n2cnc3c(N)nc(F)nc32)C[C@@H]1O` [Compound 5] yielded a solubility kinetic at 24 h [1] of under 1 µM, an EC50 [2, 4] of 8 nM and a CC50 at 5 days [3] of over 50000 nM.

For `C#C[C@]1(COC(=O)CCCCCCCCCCCCC)O[C@@H](n2cnc3c(N)nc(F)nc32)C[C@@H]1OC(=O)CCCCCCCCCCCCC` [Compound 10, (2R,3S,5R)-5-(6-amino-2-fluoro-9H-purin-9-yl)-2-ethynyl-2-((tetradecanoyloxy)methyl)tetrahydrofuran-3-yl tetradecanoate], the solubility kinetic at 24 h [1] was under 1 µM, the EC50 [2, 4] was over 500 nM and the CC50 at 5 days [3] was over 50000 nM.

`C#C[C@]1(CO)O[C@@H](n2cnc3c(NC(=O)OCCCCCCCCCCCCCC)nc(F)nc32)C[C@@H]1O` [Compound 2, Tetradecyl (9-((2R,4S,5R)-5-ethynyl-4-hydroxy-5-(hydroxymethyl)tetrahydrofuran-2-yl)-2-fluoro-9H-purin-6-yl)carbamate] showed a solubility kinetic at 24 h [1] of 1.2 µM (≈ 0.64 µg/mL), an EC50 [2, 4] of 70 nM and a CC50 at 5 days [3] of 13400 nM.

Work on `C#C[C@]1(CO)O[C@@H](n2cnc3c(NC(=O)OCCCCCCCCCCCCCCCC)nc(F)nc32)C[C@@H]1O` [Compound 3, Hexadecyl (9-((2R,4S,5R)-5-ethynyl-4-hydroxy-5-(hydroxymethyl)tetrahydrofuran-2-yl)-2-fluoro-9H-purin-6-yl)carbamate] yielded an EC50 [2, 4] of 60 nM and a CC50 at 5 days [3] of 11800 nM.

`C#C[C@]1(COC(=O)c2ccccc2COC(=O)CCCCCCCCCCCCCCC)O[C@@H](n2cnc3c(N)nc(F)nc32)C[C@@H]1OC(=O)c1ccccc1COC(=O)CCCCCCCCCCCCCCC` [Compound 7, (2R,3S,5R)-5-(6-amino-2-fluoro-9H-purin-9-yl)-2-ethynyl-2-(((2-((palmitoyloxy)methyl)benzoyl)oxy)methyl)tetrahydrofuran-3-yl 2-((palmitoyloxy)methyl)benzoate] gave a solubility kinetic at 24 h [1] of 2 µM (≈ 2.08 µg/mL), an EC50 [2, 4] of over 500 nM and a CC50 at 5 days [3] of over 50000 nM.

With `C#C[C@]1(COC(=O)CCCCCC)O[C@@H](n2cnc3c(N)nc(F)nc32)C[C@@H]1OC(=O)CCCCCC` [Compound 17, (2R,3S,5R)-5-(6-amino-2-fluoro-9H-purin-9-yl)-2-ethynyl-2-((heptanoyloxy)methyl)tetrahydrofuran-3-yl heptanoate] the solubility kinetic at 24 h [1] was under 1 µM, the EC50 [2, 4] was 7 nM and the CC50 at 5 days [3] was over 20900 nM.

`C#C[C@]1(COC(=O)CCCCCCCCCCCCCCCCC)O[C@@H](n2cnc3c(N)nc(F)nc32)C[C@@H]1O` [Compound 11, ((2R,3S,5R)-5-(6-amino-2-fluoro-9H-purin-9-yl)-2-ethynyl-3-hydroxytetrahydrofuran-2-yl)methyl stearate] gave a solubility kinetic at 24 h [1] of under 1 µM, an EC50 [2, 4] of 7 nM and a CC50 at 5 days [3] of over 41500 nM.

`C#C[C@]1(CO)O[C@@H](n2cnc3c(N)nc(F)nc32)C[C@@H]1OC(=O)CC(C)(C)c1c(C)cc(C)cc1OC(C)=O` [Compound 15, (2R,3S,5R)-5-(6-amino-2-fluoro-9H-purin-9-yl)-2-ethynyl-2-(hydroxymethyl)tetrahydrofuran-3-yl 3-(2-acetoxy-4,6-dimethylphenyl)-3-methylbutanoate] gave a solubility kinetic at 24 h [1] of 25.1 µM (≈ 13.5 µg/mL), an EC50 [2, 4] of 3 nM and a CC50 at 5 days [3] of 11800 nM.

In the case of `C#C[C@]1(COC(=O)CCCCCCCCCCCCC)O[C@@H](n2cnc3c(N)nc(F)nc32)C[C@@H]1O` [Compound 8, ((2R,3S,5R)-5-(6-amino-2-fluoro-9H-purin-9-yl)-2-ethynyl-3-hydroxytetrahydrofuran-2-yl)methyl tetradecanoate], the solubility kinetic at 24 h [1] is reported as under 1 µM, the EC50 [2, 4] is reported as 3 nM and the CC50 at 5 days [3] is reported as over 20200 nM.

In the case of `C#C[C@]1(CO)O[C@@H](n2cnc3c(N)nc(F)nc32)C[C@@H]1OC(=O)CCCCCCCCCCCCC` [Compound 9, (2R,3S,5R)-5-(6-amino-2-fluoro-9H-purin-9-yl)-2-ethynyl-2-(hydroxymethyl)tetrahydrofuran-3-yl tetradecanoate], the solubility kinetic at 24 h [1] is reported as under 1 µM, the EC50 [2, 4] is reported as 4 nM and the CC50 at 5 days [3] is reported as over 23000 nM.

With `C#C[C@]1(COC(=O)CCCCCC)O[C@@H](n2cnc3c(NC(=O)CCCCCC)nc(F)nc32)C[C@@H]1OC(=O)CCCCCC` [Compound 18, (2R,3S,5R)-2-ethynyl-5-(2-fluoro-6-heptanamido-9H-purin-9-yl)-2-((heptanoyloxy)methyl)tetrahydrofuran-3-yl heptanoate-3-yl 2-((palmitoyloxy)methyl)benzoate] the solubility kinetic at 24 h [1] was 1.5 µM (≈ 0.945 µg/mL), the EC50 [2, 4] was 20 nM and the CC50 at 5 days [3] was over 10100 nM.

`C#C[C@]1(COC(=O)CC(C)(C)c2c(C)cc(C)cc2OC(C)=O)O[C@@H](n2cnc3c(N)nc(F)nc32)C[C@@H]1OC(=O)CC(C)(C)c1c(C)cc(C)cc1OC(C)=O` [Compound 16, ((2R,3S,5R)-3-((3-(2-acetoxy-4,6-dimethylphenyl)-3-methylbutanoyl)oxy)-5-(6-amino-2-fluoro-9H-purin-9-yl)-2-ethynyltetrahydrofuran-2-yl)methyl 3-(2-acetoxy-4,6-dimethylphenyl)-3-methylbutanoate] showed a solubility kinetic at 24 h [1] of under 1 µM, an EC50 [2, 4] of 10 nM and a CC50 at 5 days [3] of 15700 nM.

Work on `C#C[C@]1(CO[P@@](=O)(N[C@@H](C)C(=O)OCC(CC)CC)Oc2ccccc2)O[C@@H](n2cnc3c(N)nc(F)nc32)C[C@@H]1O` (single isomer, unassigned) [Compound 4] yielded an EC50 ([2]; Human immunodeficiency virus 1, IIIB, MT4, 120 h) of 8 nM.

For `C#C[C@]1(COC(=O)CC(C)(C)c2c(C)cc(C)cc2OC(C)=O)O[C@@H](n2cnc3c(N)nc(F)nc32)C[C@@H]1O` [Compound 14, ((2R,3S,5R)-5-(6-amino-2-fluoro-9H-purin-9-yl)-2-ethynyl-3-hydroxytetrahydrofuran-2-yl)methyl 3-(2-acetoxy-4,6-dimethylphenyl)-3-methylbutanoate], the solubility kinetic at 24 h [1] was 37 µM (≈ 20 µg/mL), the EC50 [2, 4] was 4 nM and the CC50 at 5 days [3] was over 21600 nM.

In the case of `C#C[C@]1(COC(=O)C(C)C)O[C@@H](n2cnc3c(N)nc(F)nc32)C[C@@H]1OC(=O)C(C)C` [Compound 1, (2R,3S,5R)-5-(6-amino-2-fluoro-9H-purin-9-yl)-2-ethynyl-2-((isobutyryloxy)methyl)tetrahydrofuran-3-yl isobutyrate], the solubility kinetic at 24 h [1] is reported as 6.6 µM (≈ 2.86 µg/mL), the EC50 [2, 4] is reported as 7 nM and the CC50 at 5 days [3] is reported as 37300 nM.

Work on `C#C[C@]1(CO)O[C@@H](n2cnc3c(N)nc(F)nc32)C[C@@H]1OC(=O)c1ccccc1COC(=O)CCCCCCCCCCCCCCC` [Compound 6, (2R,3S,5R)-5-(6-amino-2-fluoro-4,5-dihydro-9H-purin-9-yl)-2-ethynyl-2-(hydroxymethyl)tetrahydrofuran-3-yl 2-((palmitoyloxy)methyl)benzoate] yielded a solubility kinetic at 24 h [1] of under 1 µM, an EC50 [2, 4] of 29 nM and a CC50 at 5 days [3] of over 50000 nM.

Compound `C#C[C@]1(COC(=O)OCCCCCCCCCCCC)O[C@@H](n2cnc3c(N)nc(F)nc32)C[C@@H]1OC(=O)OCCCCCCCCCCCC` [Compound 13, ((2R,3S,5R)-5-(6-amino-2-fluoro-9H-purin-9-yl)-3-(((dodecyloxy)carbonyl)oxy)-2-ethynyltetrahydrofuran-2-yl)methyl dodecyl carbonate] has a solubility kinetic at 24 h [1] of under 1 µM, an EC50 [2, 4] of over 500 nM and a CC50 at 5 days [3] of 5500 nM.
